Species: Rattus norvegicus
Experiment: Open TG-GATES - Regimen: Daily Repeat
Assay type: toxicity, organism-based, Sprague-Dawley
Set-up: regimen Daily Repeat, gender Male, age 6 weeks
Details: in vivo, po, 0 mg/kg, route gavage, dose level Control; for APTT / Bas / Eos / Fbg / Hb / Ht / Lym / MCH / MCHC / MCV / Mono / Neu / PT / Plat / RBC / Ret / WBC: tissue Blood; for KIDNEY_L / KIDNEY_R / KIDNEY_TOTAL: tissue Kidney; for LIVER: tissue Liver; for A/G / ALP / ALT / AST / BUN / CRE / Ca / Cl / DBIL / GLC / IP / K / LDH / Na / PL / RALB / TBIL / TC / TG / TP / gamma-GTP: tissue Plasma

`COc1ccc(O)c(C(C)(C)C)c1.COc1ccc(O)cc1C(C)(C)C` [BUTYLATED HYDROXYANISOLE] gave a TERMINAL_BW (72 h, time 3 day) of 225.6 g, an APTT (72 h, time 3 day) of 15.7 s and a Bas (72 h, time 3 day) of 0.2%. The Eos (72 h, time 3 day) was 0.8%, the Fbg (72 h, time 3 day) was 265.6 mg/dL and the Hb (72 h, time 3 day) was 12.9 g/dL. For the same compound, the Ht (72 h, time 3 day) was 38%, the Lym (72 h, time 3 day) was 71.6% and the MCH (72 h, time 3 day) was 20.9 pg. For the same compound, the MCHC (72 h, time 3 day) was 34%, the MCV (72 h, time 3 day) was 61.5 fL and the Mono (72 h, time 3 day) was 2.4%. The Neu (72 h, time 3 day) was 24.3%, the PT (72 h, time 3 day) was 11.5 s and the Plat (72 h, time 3 day) was 140.6 x10_4/uL. The RBC (72 h, time 3 day) was 619 x10_4/ul, the Ret (72 h, time 3 day) was 6.6% and the WBC (72 h, time 3 day) was 90.7 x10_2/uL. For the same compound, the KIDNEY_L (72 h, time 3 day) was 0.9 g, the KIDNEY_R (72 h, time 3 day) was 0.9 g and the KIDNEY_TOTAL (72 h, time 3 day) was 1.9 g. The LIVER (72 h, time 3 day) was 10.1 g, the A/G (72 h, time 3 day) was 0.8 and the ALP (72 h, time 3 day) was 1690.8 IU/L. For the same compound, the ALT (72 h, time 3 day) was 37.2 IU/L, the AST (72 h, time 3 day) was 66.4 IU/L and the BUN (72 h, time 3 day) was 12.8 mg/dL. The CRE (72 h, time 3 day) was 0.2 mg/dL, the Ca (72 h, time 3 day) was 11.2 mg/dL and the Cl (72 h, time 3 day) was 106 meq/L. For the same compound, the DBIL (72 h, time 3 day) was 0.02 mg/dL, the GLC (72 h, time 3 day) was 178.4 mg/dL and the IP (72 h, time 3 day) was 7.3 mg/dL. It also gave a K (72 h, time 3 day) of 4 meq/L, an LDH (72 h, time 3 day) of 60.4 IU/L and a Na (72 h, time 3 day) of 143 meq/L. The PL (72 h, time 3 day) was 136.2 mg/dL, the RALB (72 h, time 3 day) was 2.6 g/dL and the TBIL (72 h, time 3 day) was 0.064 mg/dL. The TC (72 h, time 3 day) was 76.8 mg/dL, the TG (72 h, time 3 day) was 69.4 mg/dL and the TP (72 h, time 3 day) was 5.8 g/dL. The gamma-GTP (72 h, time 3 day) was 1 IU/L, the TERMINAL_BW ([…], time 7 day) was 252.9 g and the TERMINAL_BW ([…], time 14 day) was 320.1 g. The TERMINAL_BW ([…], time 28 day) was 409.6 g, the APTT ([…], time 7 day) was 19 s and the Bas ([…], time 7 day) was 0.3%. It also gave an Eos ([…], time 7 day) of 0.8%, a Fbg ([…], time 7 day) of 288.2 mg/dL and a Hb ([…], time 7 day) of 13.5 g/dL. It also gave a Ht ([…], time 7 day) of 38.9%, a Lym ([…], time 7 day) of 76.5% and an MCH ([…], time 7 day) of 20.8 pg. The MCHC ([…], time 7 day) was 34.7%, the MCV ([…], time 7 day) was 60.1 fL and the Mono ([…], time 7 day) was 2.5%. The Neu ([…], time 7 day) was 19.2%, the PT ([…], time 7 day) was 12.2 s and the Plat ([…], time 7 day) was 135.8 x10_4/uL. It also gave an RBC ([…], time 7 day) of 647.4 x10_4/ul, a Ret ([…], time 7 day) of 5.1% and a WBC ([…], time 7 day) of 94.6 x10_2/uL. For the same compound, the APTT ([…], time 14 day) was 16.9 s, the Bas ([…], time 14 day) was 0.3% and the Eos ([…], time 14 day) was 0.6%. For the same compound, the Fbg ([…], time 14 day) was 269.2 mg/dL, the Hb ([…], time 14 day) was 13.9 g/dL and the Ht ([…], time 14 day) was 40.5%. It also gave a Lym ([…], time 14 day) of 78.2%, an MCH ([…], time 14 day) of 19.9 pg and an MCHC ([…], time 14 day) of 34.4%. For the same compound, the MCV ([…], time 14 day) was 57.8 fL, the Mono ([…], time 14 day) was 1.9% and the Neu ([…], time 14 day) was 18.2%. It also gave a PT ([…], time 14 day) of 12.2 s, a Plat ([…], time 14 day) of 143.4 x10_4/uL and an RBC ([…], time 14 day) of 700.6 x10_4/ul. For the same compound, the Ret ([…], time 14 day) was 3.6%, the WBC ([…], time 14 day) was 111.3 x10_2/uL and the APTT ([…], time 28 day) was 17.9 s. The Bas ([…], time 28 day) was 0.4%, the Eos ([…], time 28 day) was 0.9% and the Fbg ([…], time 28 day) was 262.8 mg/dL. It also gave a Hb ([…], time 28 day) of 15 g/dL, a Ht ([…], time 28 day) of 41.8% and a Lym ([…], time 28 day) of 78.1%. For the same compound, the MCH ([…], time 28 day) was 19.5 pg, the MCHC ([…], time 28 day) was 35.9% and the MCV ([…], time 28 day) was 54.4 fL. It also gave a Mono ([…], time 28 day) of 1.8%, a Neu ([…], time 28 day) of 18.2% and a PT ([…], time 28 day) of 12.3 s. The Plat ([…], time 28 day) was 121 x10_4/uL, the RBC ([…], time 28 day) was 769 x10_4/ul and the Ret ([…], time 28 day) was 2.3%. For the same compound, the WBC ([…], time 28 day) was 105.1 x10_2/uL, the KIDNEY_L ([…], time 7 day) was 1 g and the KIDNEY_R ([…], time 7 day) was 1 g. It also gave a KIDNEY_TOTAL ([…], time 7 day) of 2 g, a KIDNEY_L ([…], time 14 day) of 1.2 g and a KIDNEY_R ([…], time 14 day) of 1.2 g. The KIDNEY_TOTAL ([…], time 14 day) was 2.3 g, the KIDNEY_L ([…], time 28 day) was 1.3 g and the KIDNEY_R ([…], time 28 day) was 1.3 g. It also gave a KIDNEY_TOTAL ([…], time 28 day) of 2.6 g, an LIVER ([…], time 7 day) of 11.4 g and an LIVER ([…], time 14 day) of 14.3 g. It also gave an LIVER ([…], time 28 day) of 16.7 g, an A/G ([…], time 7 day) of 0.8 and an ALP ([…], time 7 day) of 1903.8 IU/L. It also gave an ALT ([…], time 7 day) of 44.4 IU/L, an AST ([…], time 7 day) of 67 IU/L and a BUN ([…], time 7 day) of 16 mg/dL. It also gave a CRE ([…], time 7 day) of 0.2 mg/dL, a Ca ([…], time 7 day) of 11 mg/dL and a Cl ([…], time 7 day) of 104.8 meq/L. It also gave a DBIL ([…], time 7 day) of 0.02 mg/dL, a GLC ([…], time 7 day) of 180.2 mg/dL and an IP ([…], time 7 day) of 7 mg/dL. For the same compound, the K ([…], time 7 day) was 4.1 meq/L, the LDH ([…], time 7 day) was 58.2 IU/L and the Na ([…], time 7 day) was 142 meq/L. It also gave a PL ([…], time 7 day) of 135.4 mg/dL, an RALB ([…], time 7 day) of 2.6 g/dL and a TBIL ([…], time 7 day) of 0.048 mg/dL. It also gave a TC ([…], time 7 day) of 70.6 mg/dL, a TG ([…], time 7 day) of 95.2 mg/dL and a TP ([…], time 7 day) of 5.9 g/dL. It also gave a gamma-GTP ([…], time 7 day) of 1 IU/L, an A/G ([…], time 14 day) of 0.8 and an ALP ([…], time 14 day) of 1384.2 IU/L. The ALT ([…], time 14 day) was 32 IU/L, the AST ([…], time 14 day) was 57.6 IU/L and the BUN ([…], time 14 day) was 14.4 mg/dL. The CRE ([…], time 14 day) was 0.2 mg/dL, the Ca ([…], time 14 day) was 10.7 mg/dL and the Cl ([…], time 14 day) was 105.8 meq/L. For the same compound, the DBIL ([…], time 14 day) was 0.018 mg/dL, the GLC ([…], time 14 day) was 181.4 mg/dL and the IP ([…], time 14 day) was 6.6 mg/dL. The K ([…], time 14 day) was 3.7 meq/L, the LDH ([…], time 14 day) was 52 IU/L and the Na ([…], time 14 day) was 143 meq/L. It also gave a PL ([…], time 14 day) of 137 mg/dL, an RALB ([…], time 14 day) of 2.7 g/dL and a TBIL ([…], time 14 day) of 0.048 mg/dL. For the same compound, the TC ([…], time 14 day) was 72.8 mg/dL, the TG ([…], time 14 day) was 133.8 mg/dL and the TP ([…], time 14 day) was 6 g/dL. It also gave a gamma-GTP ([…], time 14 day) of 1 IU/L, an A/G ([…], time 28 day) of 0.7 and an ALP ([…], time 28 day) of 1254.6 IU/L. The ALT ([…], time 28 day) was 32.6 IU/L, the AST ([…], time 28 day) was 57.6 IU/L and the BUN ([…], time 28 day) was 17.8 mg/dL. It also gave a CRE ([…], time 28 day) of 0.3 mg/dL, a Ca ([…], time 28 day) of 10.8 mg/dL and a Cl ([…], time 28 day) of 104.8 meq/L. It also gave a DBIL ([…], time 28 day) of 0.02 mg/dL, a GLC ([…], time 28 day) of 191 mg/dL and an IP ([…], time 28 day) of 5.4 mg/dL. For the same compound, the K ([…], time 28 day) was 4 meq/L, the LDH ([…], time 28 day) was 62.2 IU/L and the Na ([…], time 28 day) was 143.2 meq/L. The PL ([…], time 28 day) was 134.6 mg/dL, the RALB ([…], time 28 day) was 2.6 g/dL and the TBIL ([…], time 28 day) was 0.054 mg/dL. It also gave a TC ([…], time 28 day) of 68.6 mg/dL, a TG ([…], time 28 day) of 179.6 mg/dL and a TP ([…], time 28 day) of 6.2 g/dL. For the same compound, the gamma-GTP ([…], time 28 day) was 1 IU/L.
